Test results published in patent publication US20090264485A1, “Pyrazole Derivatives, Their Manufacture and Their Use as Pharmaceutical Agents” (priority 2005, published 2009).

Columns and labels:
[1] = test system: HEK293 cells; assay: CellTiter-Glo Luminescent Cell Viability Assay in HEK293 cells; format: cell-based; settings: Homo sapiens, 168 h, 7 days incubation, CellTiter-Glo luminescence
From the text: CellTiter-Glo™ Assay in HEK293 Cells
The CellTiter-Glo™ Luminescent Cell Viability Assay (Promega) is a homogeneous method of determining the number of viable cells in culture based on quantitation of the ATP present, which signals the presence of metabolically active cells.
HEK293 cells (human embryonic kidney cell line transformed by Adenovirus 5 fragments, ATCC-No. CRL 1573) were cultivated in Dulbecco's Modified Eagle Medium (DMEM) with Glutamax™ (Invitrogen, 31966-021), 5% Fetal Calf Serum (FCS, Sigma Cat-No. F4135 (FBS)), 100 Units/ml penicillin/100 μg/ml streptomycin (=Pen/Strep from Invitrogen Cat. No. 15140). For the assay the cells were seeded in 384 well plates, 5000 cells per well, in the same medium. The next day the test compounds were added in various concentrations ranging from 3 μM to 0.00015 μM (10 concentrations, 1:3 diluted). After 7 days the CellTiter-Glo™ assay was done according to the instructions of the manufacturer (CellTiter-Glo™ Luminescent Cell Viability Assay, from Promega). In brief: the cell-plate was equilibrated to room temperature for approximately 30 minutes and than the CellTiter-Glo™ reagent was added. The contents were carefully mixed for 15 minutes to induce cell lysis. After 45 minutes the luminescent signal was measured in Victor 2, (scanning multiwell spectrophotometer, Wallac).
• Medium: Dulbecco's Modified Eagle Medium (DMEM) with Glutamax™ (Invitrogen, 31966-021), 5% Fetal Calf Serum (FCS, Sigma Cat-No. F4135 (FBS)), Pen/Strep (Invitrogen Cat. No. 15140). • HEK293 (ATCC-No. CRL 1573): 5000 cells in 60 μl per well of 384 well plate (Greiner 781098, white plates) • Incubate 24 h at 37° C., 5% CO2
In general the dilution steeps are 1:3 • a) Add 8 μl of 10 mM stock solution of compound to 72 μl DMSO • b) dilute 9×1:3 (always 30 μl to 60 μl DMSO) in this DMSO dilution row (results in 10 wells with concentrations from 1000 μM to 0.06 μM) • c) dilute each concentration 1:4.8 (10 μl compound dilution to 38 μl medium) • d) dilute each concentration 1:10 (10 μl compound dilution to 90 μl medium) • e) add 10 μl of every concentration to 60 μl medium in the cell plate • resulting in final concentration of DMSO: 0.3% in every well • and resulting in final concentration of compounds from 3 μM to 0.00015 μM • Incubate 168 h (7 days) at 37° C., 5% CO2
• Add 30 μl CellTiter-Glo™ Reagent/well, • shake 15 minutes at room temperature • incubate further 45 minutes at room temperature without shaking.
• Victor 2 scanning multiwell spectrophotometer (Wallac), Luminescence mode • Determine IC50 with XL-fit (XLfit software (ID Business Solution Ltd., Guilford, Surrey, UK)).

| melting point | Structure (SMILES) | IC50 [1] |
| --- | --- | --- |
| 77 to 78 °C | Cc1cc(OCc2coc(/C=C/c3ccc(OC(F)(F)F)cc3)n2)ccc1COCCc1ccnn1C [Example 1, 4-{3-Methyl-4-[2-(E)-(2-methyl-2H-pyrazol-3-yl)-ethoxymethyl]-phenoxymethyl}-2-[2-(4-trifluoromethoxy-phenyl)-vinyl]-oxazole] | 0.095 µM |
| 96 to 97 °C | Cc1cc(OCc2coc(/C=C/c3ccc(C(F)(F)F)cc3)n2)ccc1COCCc1ccnn1C [Example 2, 4-{3-Methyl-4-[2-(E)-(2-methyl-2H-pyrazol-3-yl)-ethoxymethyl]-phenoxymethyl}-2-[2-(4-trifluoromethyl-phenyl)-vinyl]-oxazole] | 0.005 to 0.25 µM |
| 106 to 107 °C | Cc1cc(OCc2coc(/C=C/c3ccc(Cl)cc3)n2)ccc1COCCc1ccnn1C [Example 3, 2-[2-(E)-(4-Chloro-phenyl)-vinyl]-4-{3-methyl-4-[2-(2-methyl-2H-pyrazol-3-yl)-ethoxymethyl]-phenoxymethyl}-oxazole] | 0.005 to 0.25 µM |
|  | Cc1cc(OCc2coc(/C=C/c3ccc(C(F)(F)F)cc3F)n2)ccc1COCCc1ccnn1C [Example 4, 2-[2-(E)-(2-Fluoro-4-trifluoromethyl-phenyl)-vinyl]-4-{3-methyl-4-[2-(2-methyl-2H-pyrazol-3-yl)-ethoxymethyl]-phenoxymethyl}-oxazole] | 0.005 to 0.25 µM |
| 138 to 139 °C | Cc1cc(OCc2coc(/C=C/c3ccc(OC(F)(F)F)cc3)n2)ccc1C[S+]([O-])CCc1ccnn1C (centres unmarked) [Example 5, 4-{3-Methyl-4-[2-(2-methyl-2H-pyrazol-3-yl)-ethanesulfinylmethyl]-phenoxymethyl}-2-[2-(E)-(4-trifluoromethoxy-phenyl)-vinyl]-oxazole] |  |
| 169 to 171 °C | Cc1cc(OCc2coc(/C=C/c3ccc(Cl)cc3)n2)ccc1C[S+]([O-])CCc1ccnn1C (centres unmarked) [Example 6, 2-[2-(E)-(4-Chloro-phenyl)-vinyl]-4-{3-methyl-4-[2-(2-methyl-2H-pyrazol-3-yl)-ethanesulfinylmethyl]-phenoxymethyl}-oxazole] | 0.005 to 0.25 µM |
| 161 to 162 °C | Cc1cc(OCc2coc(/C=C/c3ccc(C(F)(F)F)cc3)n2)ccc1C[S+]([O-])CCc1ccnn1C (centres unmarked) [Example 7, 4-{3-Methyl-4-[2-(2-methyl-2H-pyrazol-3-yl)-ethanesulfinylmethyl]-phenoxymethyl}-2-[2-(E)-(4-trifluoromethyl-phenyl)-vinyl]-oxazole] | 0.005 to 0.25 µM |
| 144 to 146 °C | Cn1nccc1CC[S+]([O-])Cc1ccc(OCc2coc(/C=C/c3ccc(OC(F)(F)F)cc3)n2)cc1 (centres unmarked) [Example 8, 4-{4-[2-(2-Methyl-2H-pyrazol-3-yl)-ethanesulfinylmethyl]-phenoxymethyl}-2-[2-(E)-(4-trifluoromethoxy-phenyl)-vinyl]-oxazole] | 0.25 to 1 µM |
| 172 to 174 °C | Cn1nccc1CC[S+]([O-])Cc1ccc(OCc2coc(/C=C/c3ccc(C(F)(F)F)cc3)n2)cc1 (centres unmarked) [Example 9, 4-{4-[2-(2-Methyl-2H-pyrazol-3-yl)-ethanesulfinylmethyl]-phenoxymethyl}-2-[2-(E)-(4-trifluoromethyl-phenyl)-vinyl]-oxazole] | 0.25 to 1 µM |
| 204 °C | Cn1nccc1CCS(=O)(=O)Cc1ccc(OCc2coc(/C=C/c3ccc(C(F)(F)F)cc3)n2)cc1 [Example 10, 4-{4-[2-(2-Methyl-2H-pyrazol-3-yl)-ethanesulfonylmethyl]-phenoxymethyl}-2-[2-(4-trifluoromethyl-phenyl)-vinyl]-oxazole] |  |
